Data: ChEMBL document CHEMBL4265909, “Synthesis and biological evaluation of novel 5,6-dihydropyrimido[4,5-f]quinazoline derivatives as potent CDK2 inhibitors” (Bioorg Med Chem Lett, 2018)
One block for each compound: values may come before it.

Key:
CDK2/Cyclin A2 = CDK2/Cyclin A2 (Homo sapiens, UniProt P24941); test: Inhibition of full-length human CDK2/N-terminal GST-tagged Cyclin A2 (1 to 432 residues) expressed in Baculovirus expression system using FAM-P8/P18 as substrate measured after 40 mins
MCF7 = test: Antiproliferative activity against human MCF7 cells after 24 hrs by MTT assay; type: functional, cell-based; details: MCF7, 24 h
HCT-116 = test: Antiproliferative activity against human HCT116 cells after 24 hrs by MTT assay; type: functional, cell-based; details: HCT-116, 24 h
[1] = target: Cyclin-dependent kinase 6 (Homo sapiens, UniProt Q00534); test: Inhibition of CDK6 (unknown origin)
[2] = target: Cyclin-dependent kinase 5 (Homo sapiens, UniProt Q00535); test: Inhibition of CDK5 (unknown origin)
[3] = target: Cyclin-dependent kinase 1 (Homo sapiens, UniProt P06493); test: Inhibition of CDK1 (unknown origin)
[4] = target: Cyclin-dependent kinase 7 (Homo sapiens, UniProt P50613); test: Inhibition of CDK7 (unknown origin)
[5] = target: Cyclin-dependent kinase 4 (Homo sapiens, UniProt P11802); test: Inhibition of CDK4 (unknown origin)
Chain of Cyclin-dependent kinase 4 (P11802 whole entry): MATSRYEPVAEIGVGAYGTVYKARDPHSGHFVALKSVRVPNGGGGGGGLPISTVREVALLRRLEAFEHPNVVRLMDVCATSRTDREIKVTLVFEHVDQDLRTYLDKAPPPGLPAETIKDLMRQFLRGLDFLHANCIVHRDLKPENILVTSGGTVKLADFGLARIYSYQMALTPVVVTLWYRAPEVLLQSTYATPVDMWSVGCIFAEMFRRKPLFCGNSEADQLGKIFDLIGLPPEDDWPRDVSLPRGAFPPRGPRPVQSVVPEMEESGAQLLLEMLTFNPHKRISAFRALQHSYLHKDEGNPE

Chain of Cyclin-dependent kinase 1 (P06493 whole entry): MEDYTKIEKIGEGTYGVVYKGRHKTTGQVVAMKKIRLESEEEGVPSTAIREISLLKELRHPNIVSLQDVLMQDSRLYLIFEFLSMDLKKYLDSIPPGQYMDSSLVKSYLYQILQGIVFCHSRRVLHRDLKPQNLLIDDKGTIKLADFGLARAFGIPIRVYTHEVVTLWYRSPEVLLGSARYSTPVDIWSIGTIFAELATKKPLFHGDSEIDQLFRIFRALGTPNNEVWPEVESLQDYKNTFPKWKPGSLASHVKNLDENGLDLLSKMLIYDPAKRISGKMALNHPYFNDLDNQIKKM
Chain of Cyclin-dependent kinase 7 (P50613 whole entry): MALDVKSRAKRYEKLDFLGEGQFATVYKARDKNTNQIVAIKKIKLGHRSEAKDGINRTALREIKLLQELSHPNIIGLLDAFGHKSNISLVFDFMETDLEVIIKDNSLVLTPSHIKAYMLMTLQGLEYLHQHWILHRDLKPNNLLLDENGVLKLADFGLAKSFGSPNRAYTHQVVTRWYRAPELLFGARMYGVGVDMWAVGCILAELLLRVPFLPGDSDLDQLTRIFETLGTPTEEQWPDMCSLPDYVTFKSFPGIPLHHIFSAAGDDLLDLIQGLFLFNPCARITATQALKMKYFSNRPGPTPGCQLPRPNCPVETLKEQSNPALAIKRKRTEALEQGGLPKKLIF
Chain of Cyclin-dependent kinase 5 (Q00535 whole entry): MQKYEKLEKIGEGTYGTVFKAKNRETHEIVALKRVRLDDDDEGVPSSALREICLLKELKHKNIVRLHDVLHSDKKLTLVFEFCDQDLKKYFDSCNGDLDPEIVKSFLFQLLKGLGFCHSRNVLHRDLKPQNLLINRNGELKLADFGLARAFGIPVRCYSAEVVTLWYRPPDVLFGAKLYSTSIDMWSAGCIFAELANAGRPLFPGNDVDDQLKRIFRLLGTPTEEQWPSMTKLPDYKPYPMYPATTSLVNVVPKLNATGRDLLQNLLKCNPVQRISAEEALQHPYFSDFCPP
Chain of Cyclin-dependent kinase 6 (Q00534 whole entry): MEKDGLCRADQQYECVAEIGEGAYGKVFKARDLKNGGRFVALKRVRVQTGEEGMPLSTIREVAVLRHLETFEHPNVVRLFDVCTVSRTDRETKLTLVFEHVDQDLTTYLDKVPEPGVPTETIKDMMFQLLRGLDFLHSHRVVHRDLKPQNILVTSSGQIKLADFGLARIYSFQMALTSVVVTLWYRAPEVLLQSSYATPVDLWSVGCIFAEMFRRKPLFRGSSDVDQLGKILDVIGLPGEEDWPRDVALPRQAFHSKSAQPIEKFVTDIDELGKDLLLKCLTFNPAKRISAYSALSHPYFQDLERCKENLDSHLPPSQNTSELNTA

SMILES: c1ccc(Nc2ncc3c(n2)CCc2cnc(Nc4ccccc4)nc2-3)cc1
IC50 (CDK2/Cyclin A2): 1.54 µM
IC50 (MCF7): 20.6 µM
IC50 (HCT-116): 18.1 µM

SMILES: CN(C)CCN(C)C(=O)c1ccc(Nc2ncc3c(n2)CCc2cnc(N)nc2-3)cc1
IC50 (CDK2/Cyclin A2): 3.2 µM
IC50 (MCF7): > 30 µM
IC50 (HCT-116): > 30 µM

SMILES: CCOC(=O)c1ccc(Nc2ncc3c(n2)-c2cnc(SC)nc2CC3)cc1
IC50 (CDK2/Cyclin A2): 1.25 µM
IC50 (MCF7): 25.4 µM
IC50 (HCT-116): 14.3 µM

SMILES: CSc1ncc2c(n1)CCc1cnc(Nc3ccc(C(=O)N(C)CCN(C)C)cc3)nc1-2
IC50 [1]: > 5 µM
IC50 [2]: 0.68 µM
IC50 [3]: 1.25 µM
IC50 (CDK2/Cyclin A2): 0.09 µM
IC50 (MCF7): 1.1 µM
IC50 (HCT-116): 1.4 µM
IC50 [4]: 3.6 µM
IC50 [5]: > 5 µM

SMILES: CSc1ncc2c(n1)CCc1cnc(Nc3ccc(F)cc3)nc1-2
IC50 (CDK2/Cyclin A2): 0.35 µM
IC50 (MCF7): 8.4 µM
IC50 (HCT-116): 7.9 µM

SMILES: CSc1ncc2c(n1)CCc1cnc(Nc3ccc(C(=O)N4CCOCC4)cc3)nc1-2
IC50 (CDK2/Cyclin A2): 0.19 µM
IC50 (MCF7): 2.1 µM
IC50 (HCT-116): 3.2 µM

SMILES: CSc1ncc2c(n1)CCc1cnc(Nc3ccc(C(=O)N4CCNCC4)cc3)nc1-2
IC50 (CDK2/Cyclin A2): 0.16 µM
IC50 (MCF7): 1.5 µM
IC50 (HCT-116): 1.3 µM

SMILES: Nc1ncc2c(n1)-c1cnc(Nc3ccccc3)nc1CC2
IC50 (CDK2/Cyclin A2): 1.7 µM
IC50 (MCF7): 27.6 µM
IC50 (HCT-116): 25.3 µM

SMILES: CSc1ncc2c(n1)CCc1cnc(Nc3ccc(C(=O)O)cc3)nc1-2
IC50 (CDK2/Cyclin A2): 0.98 µM
IC50 (MCF7): 17.8 µM
IC50 (HCT-116): 12.8 µM

SMILES: CSc1ncc2c(n1)CCc1cnc(Nc3ccc(C(=O)N4CCN(C)CC4)cc3)nc1-2
IC50 (CDK2/Cyclin A2): 0.18 µM
IC50 (MCF7): 2.5 µM
IC50 (HCT-116): 3.8 µM

SMILES: Nc1ncc2c(n1)-c1cnc(Nc3ccc(C(=O)N4CCOCC4)cc3)nc1CC2
IC50 (MCF7): > 30 µM
IC50 (HCT-116): > 30 µM

SMILES: CSc1ncc2c(n1)CCc1cnc(Nc3ccccc3)nc1-2
IC50 (CDK2/Cyclin A2): 0.41 µM
IC50 (MCF7): 15.6 µM
IC50 (HCT-116): 12.7 µM

Now from value to compound:

IC50 (CDK2/Cyclin A2): 0.16 µM
IC50 (MCF7): 1.4 µM
IC50 (HCT-116): 1.6 µM
SMILES: CSc1ncc2c(n1)CCc1cnc(Nc3ccc(N)cc3)nc1-2

IC50 (CDK2/Cyclin A2): 0.38 µM
IC50 (MCF7): 7 µM
IC50 (HCT-116): 8.3 µM
SMILES: CSc1ncc2c(n1)CCc1cnc(Nc3ccc(Cl)cc3)nc1-2

IC50 (CDK2/Cyclin A2): 2.03 µM
IC50 (MCF7): 23.5 µM
IC50 (HCT-116): 26.3 µM
SMILES: Clc1ccc(Nc2ncc3c(n2)-c2cnc(Nc4ccccc4)nc2CC3)cc1

IC50 (CDK2/Cyclin A2): 3.7 µM
IC50 (MCF7): 19.4 µM
IC50 (HCT-116): 17.2 µM
SMILES: CSc1ncc2c(n1)CCc1cnc(Nc3ccc(C(=O)N4CCN(C(=O)OC(C)(C)C)CC4)cc3)nc1-2

IC50 (CDK2/Cyclin A2): 0.11 µM
IC50 (MCF7): 1.3 µM
IC50 (HCT-116): 0.9 µM
SMILES: CSc1ncc2c(n1)CCc1cnc(Nc3ccc(C(N)=O)cc3)nc1-2

IC50 (MCF7): 1 µM
IC50 (HCT-116): 0.7 µM
SMILES: CC(C)(C)c1cnc(CSc2cnc(NC(=O)C3CCNCC3)s2)o1 [BMS-387032]

IC50 (CDK2/Cyclin A2): 0.53 µM
IC50 (MCF7): 3.7 µM
IC50 (HCT-116): 5.3 µM
SMILES: CSc1ncc2c(n1)CCc1cnc(Nc3ccc(C(=O)N(C)C)cc3)nc1-2

IC50 (MCF7): > 30 µM
IC50 (HCT-116): > 30 µM
SMILES: CCOC(=O)c1ccc(Nc2ncc3c(n2)CCc2cnc(N)nc2-3)cc1

IC50 (CDK2/Cyclin A2): 1.85 µM
IC50 (MCF7): > 30 µM
IC50 (HCT-116): > 30 µM
SMILES: Nc1ncc2c(n1)-c1cnc(Nc3ccc(Cl)cc3)nc1CC2

IC50 (CDK2/Cyclin A2): 1.26 µM
IC50 (MCF7): 6.5 µM
IC50 (HCT-116): 9.1 µM
SMILES: CSc1ncc2c(n1)CCc1cnc(Nc3ccc(C(=O)NC4CCCC4)cc3)nc1-2

IC50 (CDK2/Cyclin A2): 5.9 µM
IC50 (MCF7): > 30 µM
IC50 (HCT-116): > 30 µM
SMILES: CN1CCN(C(=O)c2ccc(Nc3ncc4c(n3)CCc3cnc(N)nc3-4)cc2)CC1
